Numbers after ± are expanded uncertainties.
Experiments:
[1] = 298.15 K; 101.33 kPa; Liquid; Vibrating tube method
[2] = refractive index (Na D-line) (dimensionless); details: 298.15 K; 101.33 kPa; Liquid; Standard Abbe refractometry

| mass density [1] | refractive index [2] | SMILES |
| --- | --- | --- |
| 1028.12 ± 0.11 kg/m3 | 1.4202 ± 0.0004 | C1COCCO1 [1,4-dioxane] |
| 882.03 ± 0.1 kg/m3 | 1.4048 ± 0.0004 | C1CCOC1 [tetrahydrofuran] |

| SMILES | mass density [1] | refractive index [2] |
| --- | --- | --- |
| CC(C)=O [acetone] | 784.65 ± 0.12 kg/m3 | 1.3563 ± 0.0004 |

From the NIST ThermoML archive (doi:10.1016/j.tca.2010.07.017)
